Assay results as given in ChEMBL document CHEMBL4342436, “Artemisia: a promising plant for the treatment of cancer” (Bioorg Med Chem, 2020).
≈ marks a conversion by molar mass, not a printed value. Each block holds one compound with its values, some of them ahead of it.

What was measured:
HT-29 = test: Cytotoxicity against human HT-29 cells assessed as reduction in cell viability after 48 hrs by MTT assay; type: functional, cell-based; conditions: HT-29, 48 h
A549 [1] = test: Cytotoxicity against human A549 cells assessed as reduction in cell viability after 48 hrs by MTT assay; type: functional, cell-based; conditions: A549, 48 h
L1210 = test: Cytotoxicity against mouse L1210 cells assessed as reduction in cell viability after 48 hrs by MTT assay; type: functional, cell-based; conditions: L1210, 48 h
P388 = test: Cytotoxicity against mouse P388 cells assessed as reduction in cell viability after 48 hrs by MTT assay; type: functional, cell-based; conditions: P388, 48 h
Bel-7402 = test: Cytotoxicity against human Bel7402 cells by MTT assay; type: functional, cell-based
A549 [2] = test: Cytotoxicity against human A549 cells by MTT assay; type: functional, cell-based
HeLa [3] = test: Cytotoxicity against human HeLa cells after 48 hrs by MTT assay; type: functional, cell-based
U-937 = test: Cytotoxicity against human U937 cells after 48 hrs by MTT assay; type: functional, cell-based; conditions: U-937, 48 h
A549 [4] = test: Cytotoxicity against human A549 cells after 48 hrs by MTT assay; type: functional, cell-based; conditions: A549, 48 h
A-431 = test: Cytotoxicity against human A431 cells after 72 hrs by MTT assay; type: functional, cell-based; conditions: A-431, 72 h
MCF7 [5] = test: Cytotoxicity against human MCF7 cells after 72 hrs by MTT assay; type: functional, cell-based; conditions: MCF7, 72 h
HeLa [6] = test: Cytotoxicity against human HeLa cells after 72 hrs by MTT assay; type: functional, cell-based
A2780 = test: Cytotoxicity against human A2780 cells after 72 hrs by MTT assay; type: functional, cell-based; conditions: A2780, 72 h
MCF7 [7] = test: Cytotoxicity against human MCF7 cells; type: functional, cell-based
LNCaP = test: Cytotoxicity against human LNCAP cells; type: functional, cell-based
SK-MEL-2 [8] = test: Cytotoxicity against human SK-MEL-2 cells; type: functional, cell-based
HepG2 [9] = test: Cytotoxicity against human HepG2 cells; type: functional, cell-based
KB = test: Cytotoxicity against human KB cells; type: functional, cell-based
MCF7 [10] = test: Cytotoxicity against human MCF7 cells assessed as reduction in cell viability incubated for 48 hrs by MTT assay; type: functional, cell-based; conditions: MCF7, 48 h
HeLa [11] = test: Cytotoxicity against human HeLa cells assessed as reduction in cell viability incubated for 48 hrs by MTT assay; type: functional, cell-based
SW-620 = test: Antitumour activity against human SW620 cells xenografted in mouse assessed as inhibition of tumour growth at 60 mg/kg relative to control; type: functional; conditions: read-out: TGI
HL-60 = test: Antiproliferative activity against human HL60 cells assessed as reduction in cell viability after 3 days by XTT assay; type: functional, cell-based; conditions: HL-60, 72 h
[12] = Cytotoxicity against mouse S17 cells after 72 hrs by MTT assay; type: functional, cell-based; conditions: S17, 72 h
HepG2 [13] = test: Cytotoxicity against human HepG2 cells after 72 hrs by MTT assay; type: functional, cell-based; conditions: HepG2, 72 h
SH-SY5Y = test: Cytotoxicity against human SH-SY5Y cells after 72 hrs by MTT assay; type: functional, cell-based
SK-MEL-2 [14] = test: Cytotoxicity against human SK-MEL-2 cells by SRB assay; type: functional, cell-based
XF498 = test: Cytotoxicity against human XF498 cells by SRB assay; type: functional, cell-based
SK-OV-3 = test: Cytotoxicity against human SKOV3 cells by SRB assay; type: functional, cell-based
A549 [15] = test: Cytotoxicity against human A549 cells by SRB assay; type: functional, cell-based
HCT-15 = test: Cytotoxicity against human HCT15 cells by SRB assay; type: functional, cell-based
[16] = Cytotoxicity against human YD-10B cells assessed as reduction in cell viability after 48 hr by MTT asssay; type: functional, cell-based

SMILES: C[C@H]1[C@@H](O[C@@H](C#N)c2ccc(Br)cc2)O[C@@H]2O[C@@]3(C)CC[C@H]4[C@H](C)CC[C@@H]1[C@@]24OO3
IC50 (HT-29): 0.01 to 0.49 µM
IC50 (A549 [1]): 0.01 to 0.49 µM
IC50 (L1210): 0.01 to 0.49 µM
IC50 (P388): 0.01 to 0.49 µM

SMILES: C=C1C(=O)O[C@H]2[C@H]1[C@@H](OC(C)=O)C[C@@](C)(O)[C@@]13O[C@@H]1[C@@H](Cl)[C@](C)(O)[C@H]23
IC50 (Bel-7402): 3.3 to 6 µM
IC50 (A549 [2]): 3.3 to 6 µM

SMILES: C=C1C(=O)O[C@H]2[C@H]1[C@@H](OC(=O)/C(C)=C\C)CC(C)=C1C[C@@H]3O[C@]3(C)[C@@H]12
IC50 (HeLa [3]): 16 to 43.5 µg/mL (≈ 46.5 to 126 µM)
IC50 (U-937): 16 to 43.5 µg/mL (≈ 46.5 to 126 µM)
IC50 (A549 [4]): 16 to 43.5 µg/mL (≈ 46.5 to 126 µM)

SMILES: C=C1C(=O)O[C@H]2[C@H]1CC[C@@](C)(O)[C@]13O[C@H]1[C@H](Cl)[C@@](C)(O)[C@H]23
IC50 (A-431): 33 to 75 µg/mL (≈ 105 to 238 µM)
IC50 (MCF7 [5]): 33 to 75 µg/mL (≈ 105 to 238 µM)
IC50 (HeLa [6]): 33 to 75 µg/mL (≈ 105 to 238 µM)
IC50 (A2780): 33 to 75 µg/mL (≈ 105 to 238 µM)
IC50 (Bel-7402): 3.3 to 6 µM
IC50 (A549 [2]): 3.3 to 6 µM

SMILES: C=C1C(=O)O[C@H]2[C@H]1CC[C@@](C)(O)C1=C[C@H](O)[C@@](C)(O)[C@@H]12
IC50 (MCF7 [7]): > 100 µM
IC50 (LNCaP): > 100 µM
IC50 (SK-MEL-2 [8]): > 100 µM
IC50 (HepG2 [9]): > 100 µM
IC50 (KB): > 100 µM

SMILES: COc1cc(O)c2c(=O)c(OC)c(-c3ccc(O)cc3)oc2c1 [KUMATAKENIN]
IC50 (MCF7 [10]): 10.3 to 91.9 µM
IC50 (HeLa [11]): 8.1 to 63.2 µM

SMILES: C=C1C(=O)O[C@H]2[C@H]1[C@@H](OC(C)=O)CC(=C)[C@]1(O)C[C@H](Cl)[C@@](C)(O)[C@H]21
IC50 (Bel-7402): 3.3 to 6 µM
IC50 (A549 [2]): 3.3 to 6 µM

SMILES: COc1ccc(-c2cc(=O)c3c(O)c(OC)c(OC)cc3o2)cc1O [EUPATORIN]
IC50 (MCF7 [10]): 10.3 to 91.9 µM
IC50 (HeLa [11]): 8.1 to 63.2 µM

SMILES: COc1ccc(-c2cc(=O)c3c(O)c(O)c(OC)cc3o2)cc1OC
inhibition in vivo at 60 mg/kg (SW-620): 44.6%

IC50 (HL-60): 1.1 to 40.7 µg/mL (≈ 5.33 to 197 µM)
SMILES: COc1cc2ccc(=O)oc2cc1OC [SCOPARONE]

SMILES: COc1cc(-c2oc3cc(O)cc(O)c3c(=O)c2OC)cc(O)c1OC
IC50 (MCF7 [10]): 10.3 to 91.9 µM
IC50 (HeLa [11]): 8.1 to 63.2 µM

SMILES: CC1=CCC2[C@@H]1[C@H]1OC(=O)[C@@H](C)[C@@H]1C[C@]1(C)O[C@H]21 (some centres undefined)
IC50 [12]: 229 to 233 µM
IC50 (HepG2 [13]): 229 to 233 µM
IC50 (SH-SY5Y): 229 to 233 µM

SMILES: C=C1C(=O)O[C@H]2[C@H]1CC[C@@](C)(O)C1=C[C@@H](O)[C@@](C)(O)[C@@H]12
IC50 (MCF7 [7]): > 100 µM
IC50 (LNCaP): > 100 µM
IC50 (SK-MEL-2 [8]): > 100 µM
IC50 (HepG2 [9]): > 100 µM
IC50 (KB): > 100 µM

SMILES: COc1cc(-c2cc(=O)c3c(O)c(OC)c(OC)cc3o2)ccc1O [CIRSILENEOL]
IC50 (A-431): 33 to 75 µg/mL (≈ 95.8 to 218 µM)
IC50 (MCF7 [5]): 33 to 75 µg/mL (≈ 95.8 to 218 µM)
IC50 (HeLa [6]): 33 to 75 µg/mL (≈ 95.8 to 218 µM)
IC50 (A2780): 33 to 75 µg/mL (≈ 95.8 to 218 µM)

SMILES: COc1cc(-c2oc3cc(O)cc(O)c3c(=O)c2O)ccc1O [ISORHAMNETIN]
IC50 (MCF7 [10]): 10.3 to 91.9 µM
IC50 (HeLa [11]): 8.1 to 63.2 µM

SMILES: CC(C)=CCC[C@H](C)[C@H]1C[C@@H]2OO[C@H]1C=C2C
IC50 (SK-MEL-2 [14]): 0.1 to 0.87 µg/mL (≈ 0.423 to 3.68 µM)
IC50 (XF498): 0.1 to 0.87 µg/mL (≈ 0.423 to 3.68 µM)
IC50 (SK-OV-3): 0.1 to 0.87 µg/mL (≈ 0.423 to 3.68 µM)
IC50 (A549 [15]): 0.1 to 0.87 µg/mL (≈ 0.423 to 3.68 µM)
IC50 (HCT-15): 0.1 to 0.87 µg/mL (≈ 0.423 to 3.68 µM)

SMILES: COc1cc2ccc(=O)oc2c(OC)c1O
IC50 (SK-MEL-2 [14]): 0.4 to 26.8 µg/mL (≈ 1.8 to 121 µM)
IC50 (XF498): 0.4 to 26.8 µg/mL (≈ 1.8 to 121 µM)
IC50 (SK-OV-3): 0.4 to 26.8 µg/mL (≈ 1.8 to 121 µM)
IC50 (A549 [15]): 0.4 to 26.8 µg/mL (≈ 1.8 to 121 µM)
IC50 (HCT-15): 0.4 to 26.8 µg/mL (≈ 1.8 to 121 µM)

SMILES: CC1=CC(=O)C2=C(C)CC[C@@H]3[C@H](OC(=O)[C@H]3C)[C@@H]12 [DESACETOXYMATRICARIN]
IC50 (SK-MEL-2 [14]): 0.4 to 26.8 µg/mL (≈ 1.62 to 109 µM)
IC50 (XF498): 0.4 to 26.8 µg/mL (≈ 1.62 to 109 µM)
IC50 (SK-OV-3): 0.4 to 26.8 µg/mL (≈ 1.62 to 109 µM)
IC50 (A549 [15]): 0.4 to 26.8 µg/mL (≈ 1.62 to 109 µM)
IC50 (HCT-15): 0.4 to 26.8 µg/mL (≈ 1.62 to 109 µM)

SMILES: CC(=O)O[C@H]1C(=O)[C@@]2(C)[C@H]([C@H](OC(=O)c3ccccc3)[C@]3(O)C[C@H](OC(=O)[C@H](O)[C@@H](NC(=O)c4ccccc4)c4ccccc4)C(C)=C1C3(C)C)[C@]1(OC(C)=O)CO[C@@H]1C[C@@H]2O [PACLITAXEL]
IC50 [16]: 13.1 µM

SMILES: C=C1C(=O)O[C@@H]2/C=C(\C)[C@@H](OC(=O)[C@@H](C)CC)C/C=C(\C)CC[C@@H]12
IC50 (HeLa [3]): 16 to 43.5 µg/mL (≈ 48.1 to 131 µM)
IC50 (U-937): 16 to 43.5 µg/mL (≈ 48.1 to 131 µM)
IC50 (A549 [4]): 16 to 43.5 µg/mL (≈ 48.1 to 131 µM)

IC50 (HL-60): 1.1 to 40.7 µg/mL (≈ 7.13 to 264 µM)
SMILES: CC#CC#CCc1ccccc1
